Here are results for ten compounds from ChEMBL document CHEMBL6134905, “Double Swords in One: Novel Selective PI3K/110β PROTAC Degraders for the Treatment of Multidrug-Resistant Cancer by Activating ERS and Inhibiting P-gp” (J Med Chem, 2025).

For test [1], the target named is T1, von Hippel-Lindau disease tumor suppressor/Phosphatidylinositol 4,5-bisphosphate 3-kinase catalytic subunit beta isoform (Homo sapiens, UniProt P42338+P40337). Put plainly: PROTAC activity at PI3K-p110beta/VHL in human MCF7/ADM cells assessed as induction of PI3K-p110beta degradation at 2.5 uM incubated for 24 hrs by Western blot analysis. It counts as cell-based. On the technique in general: Immunoblotting shows a protein as a band on a membrane.

The target of test [2] is T1, von Hippel-Lindau disease tumor suppressor/Phosphatidylinositol 4,5-bisphosphate 3-kinase catalytic subunit beta isoform. The test is described as follows: PROTAC activity at PI3K-p110beta/VHL in human A549/DDP cells assessed as induction of PI3K-p110beta degradation at 25 uM incubated for 24 hrs by Western blot analysis. In kind it is cell-based.
For test [3] the target is unchanged. Put plainly: PROTAC activity at PI3K-p110beta/VHL in human MCF7/ADM cells assessed as induction of PI3K-p110beta degradation at 25 uM incubated for 24 hrs by Western blot analysis. It counts as cell-based.
Test [4] has the same target. The test is described as follows: PROTAC activity at PI3K-p110beta/VHL in human A549/DDP cells assessed as induction of PI3K-p110beta degradation at 2.5 uM incubated for 24 hrs by Western blot analysis. It counts as cell-based.
Test [5] deals with A549/CDDP. Put plainly: Activation of unfolded protein response in human A549/DDP cells at 25 uM incubated for 24 hrs by PROTEOSTATR aggresome dye based fluorescent microscopy. It counts as functional, cell-based.
The target of test [6] is T1, von Hippel-Lindau disease tumor suppressor/Phosphatidylinositol 4,5-bisphosphate 3-kinase catalytic subunit beta isoform. Put plainly: PROTAC activity at PI3K-p110beta/VHL in human MCF7/ADM cells assessed as reduction in PI3K-p110beta level at 25 uM measured for 24 hrs by Western blot analysis. In kind it is cell-based.
The next test relates to A549. The test is described as follows: Antitumor activity against human A549 cells assessed as cell viability incubated for 24 hrs by MTT assay. In kind it is functional, cell-based. The following applies: A549, 24 h. On the technique in general: Formazan colour is commonly taken as a measure of viable cells.
Test [7] addresses T1, von Hippel-Lindau disease tumor suppressor/Phosphatidylinositol 4,5-bisphosphate 3-kinase catalytic subunit beta isoform. The test is described as follows: PROTAC activity at PI3K-p110beta/VHL in human A549/DDP cells assessed as reduction in PI3K-p110beta mRNA level at 25 uM measured for 24 hrs by qRT-PCR analysis. In kind it is cell-based.
Test [8] has as its system MCF7/ADM. The test is described as follows: Antitumor activity against human MCF7/ADM cells xenografted in BALB/c mouse assessed as reduction in tumor volume at 50 mg/kg, ip measured every 2 days. It counts as functional, organism-based. The following applies: time 2.0 day.
Test [9] is described as follows: Antitumor activity against human MCF7/ADM cells assessed as cell viability incubated for 24 hrs by MTT assay. In kind it is functional, cell-based.
The subject of a further test is MCF7. The test is described as follows: Antitumor activity against human MCF7 cells assessed as cell viability incubated for 24 hrs by MTT assay. The following applies: MCF7, 24 h. In kind it is functional, cell-based.
Test [10] addresses T1, von Hippel-Lindau disease tumor suppressor/Phosphatidylinositol 4,5-bisphosphate 3-kinase catalytic subunit beta isoform. Put plainly: PROTAC activity at PI3K-p110beta/VHL in human A549/DDP cells assessed as reduction in PI3K-p110beta level at 25 uM measured for 24 hrs by Western blot analysis. In kind it is cell-based.
Test [11] concerns A549/CDDP. The test is described as follows: Antitumor activity against human A549/DDP cells assessed as cell viability incubated for 24 hrs by MTT assay. In kind it is functional, cell-based.
For test [12], the target named is T1, von Hippel-Lindau disease tumor suppressor/Phosphatidylinositol 4,5-bisphosphate 3-kinase catalytic subunit beta isoform. The test is described as follows: PROTAC activity at PI3K-p110beta/VHL in human MCF7/ADM cells assessed as reduction in PI3K-p110beta mRNA level at 25 uM measured for 24 hrs by qRT-PCR analysis. It counts as cell-based. (In qPCR the cycle at which signal appears reflects the starting amount.)

For test [13], the system named is MCF7/ADM. Put plainly: Induction of cell death in human MCF-7/ADM cells at 25 uM incubated for 24 hrs. It counts as functional, cell-based.
In test [14] the test system is A549/CDDP. Put plainly: Induction of cell death in human A549/DDP cells at 25 uM incubated for 24 hrs. It counts as functional, cell-based.
Test [15] has as its system A549/CDDP. The test is described as follows: Induction of apoptosis in human A549/DDP cells at 25 uM incubated for 24 hrs by Annexin V-FITC/PI staining based flow cytometry analysis (reference value: 4.27%). In kind it is functional.
Test [16] can be described thus: Induction of apoptosis in human MCF7/ADM cells at 25 uM incubated for 24 hrs by Annexin V-FITC/PI staining based flow cytometry analysis (reference value: 5.20%). It counts as functional.

A word on the IC50: it is the midpoint of a concentration-inhibition curve.

Active and inactive are the calls of the source. No cut-off for these calls is given here. Residues, ends and D or L forms follow the SMILES beside them. *: point of attachment. Cbz = O=C(OCc1ccccc1)*; CH2F = FC*

T1 sequence (P40337 whole entry, looked up, canonical isoform): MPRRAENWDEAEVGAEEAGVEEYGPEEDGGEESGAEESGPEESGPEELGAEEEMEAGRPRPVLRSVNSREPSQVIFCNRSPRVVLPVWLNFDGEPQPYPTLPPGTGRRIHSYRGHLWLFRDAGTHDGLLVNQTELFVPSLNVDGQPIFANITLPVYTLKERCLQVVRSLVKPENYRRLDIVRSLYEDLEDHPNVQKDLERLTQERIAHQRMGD
T1 sequence (P42338 whole entry, looked up, canonical isoform): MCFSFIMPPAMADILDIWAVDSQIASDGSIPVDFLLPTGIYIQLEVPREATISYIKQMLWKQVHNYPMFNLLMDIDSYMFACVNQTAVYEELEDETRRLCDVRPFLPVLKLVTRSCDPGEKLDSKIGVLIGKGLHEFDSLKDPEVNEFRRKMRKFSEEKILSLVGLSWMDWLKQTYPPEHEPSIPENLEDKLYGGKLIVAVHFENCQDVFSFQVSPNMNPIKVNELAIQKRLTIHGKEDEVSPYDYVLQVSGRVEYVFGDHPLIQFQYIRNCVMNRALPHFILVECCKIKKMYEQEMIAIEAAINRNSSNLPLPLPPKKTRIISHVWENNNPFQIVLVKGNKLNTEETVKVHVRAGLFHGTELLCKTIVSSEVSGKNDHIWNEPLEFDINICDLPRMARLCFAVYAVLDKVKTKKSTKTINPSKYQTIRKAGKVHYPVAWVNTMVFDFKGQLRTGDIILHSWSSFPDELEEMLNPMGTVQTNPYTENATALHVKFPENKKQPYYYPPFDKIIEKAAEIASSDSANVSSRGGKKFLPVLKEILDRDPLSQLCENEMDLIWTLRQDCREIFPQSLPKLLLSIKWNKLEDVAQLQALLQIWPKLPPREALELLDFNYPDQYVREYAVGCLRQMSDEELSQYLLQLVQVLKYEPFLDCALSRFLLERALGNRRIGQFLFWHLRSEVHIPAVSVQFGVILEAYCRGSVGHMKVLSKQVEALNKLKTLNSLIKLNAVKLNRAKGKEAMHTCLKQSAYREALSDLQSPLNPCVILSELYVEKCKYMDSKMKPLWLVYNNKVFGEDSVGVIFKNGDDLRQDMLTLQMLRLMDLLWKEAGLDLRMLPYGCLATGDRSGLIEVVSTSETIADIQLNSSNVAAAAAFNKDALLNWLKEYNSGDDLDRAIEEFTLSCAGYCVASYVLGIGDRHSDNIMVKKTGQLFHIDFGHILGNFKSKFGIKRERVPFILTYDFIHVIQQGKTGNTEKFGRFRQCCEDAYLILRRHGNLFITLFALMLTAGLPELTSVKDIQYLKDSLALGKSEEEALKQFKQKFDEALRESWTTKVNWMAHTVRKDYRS

On to `Cc1cc(C(C)Nc2ccccc2C(=O)NCCCCCCCCCCC(=O)N[C@H](C(=O)N2C[C@H](O)C[C@H]2C(=O)NCc2ccc(-c3scnc3C)cc2)C(C)(C)C)c2nc(N3CCOCC3)cc(=O)n2c1` (some centres not stated), for which the result in test [1], in test [2], in test [3] and in test [4] was Active.
As to `N#CSc1cc(SC#N)c(N)nc1N`, the result in the test on A549/CDDP [5] was Active.
The same measure, in the same setting: in the case of `O=c1cc(N2CCOCC2)oc2c(-c3ccccc3)cccc12` it was “Active”.
In the case of `Cc1cc(C(C)Nc2ccccc2)c2nc(N3CCOCC3)cc(=O)n2c1` (configuration not stated), the result in test [6], in test [7] and in [10] was inactive. In addition, the IC50 in the test with A549 was 88.3 µM; in test [9] it was 50.8 µM; in the test with MCF7, 75.1 µM; with A549/CDDP [11], 57.9 µM. For the same compound, the result (in the test on MCF7/ADM [8]; in test [12]) was Active.
Take `Cc1cc(C(C)Nc2ccccc2C(=O)NCCCCCCCC(=O)N[C@H](C(=O)N2C[C@H](O)C[C@H]2C(=O)NCc2ccc(-c3scnc3C)cc2)C(C)(C)C)c2nc(N3CCOCC3)cc(=O)n2c1` (some centres not stated): the outcome in test [1], in [2], in test [3] and in test [4] was Active.
Consider `Cc1cc(C(C)Nc2ccccc2C(=O)NCCC(=O)N[C@H](C(=O)N2C[C@H](O)C[C@H]2C(=O)NCc2ccc(-c3scnc3C)cc2)C(C)(C)C)c2nc(N3CCOCC3)cc(=O)n2c1` (some centres not stated), for which the outcome in test [1], in test [2], in test [3] and in test [4] was Active.
In the case of `Cc1cc(C(C)Nc2ccccc2C(=O)NCCCCCC(=O)N[C@H](C(=O)N2C[C@H](O)C[C@H]2C(=O)NCc2ccc(-c3scnc3C)cc2)C(C)(C)C)c2nc(N3CCOCC3)cc(=O)n2c1` (some centres not stated), the outcome in test [1], in [2], in test [3] and in test [4] was Active.
Regarding `C[C@H](CCC(=O)NCCS(=O)(=O)O)[C@H]1CC[C@H]2[C@@H]3[C@@H](O)C[C@@H]4C[C@H](O)CC[C@]4(C)[C@H]3CC[C@]12C` [TAURURSODIOL], the outcome with MCF7/ADM [13] and in the test with A549/CDDP [14] was Active. Moreover, the Activity is listed as 18.57% with A549/CDDP [15] and 21.48% in test [16].
Regarding `Cc1cc(C(C)Nc2ccccc2C(=O)NCCCC(=O)N[C@H](C(=O)N2C[C@H](O)C[C@H]2C(=O)NCc2ccc(-c3scnc3C)cc2)C(C)(C)C)c2nc(N3CCOCC3)cc(=O)n2c1` (some centres not stated), the result in test [1], in test [2], in test [3] and in test [4] was Active.
Regarding `CC(C)[C@H](NC(=O)OCc1ccccc1)C(=O)N[C@@H](C)C(=O)N[C@@H](CC(=O)O)C(=O)CF` (Cbz-Val-Ala-Asp-CH2F), the outcome with MCF7/ADM [13] and with A549/CDDP [14] was Active.
